Data taken from PubChem BioAssay (NCI).
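Cultured in 96-well plates, cells were exposed to test compound for 48 hours across five concentrations. Here, GI50 denotes the concentration required for 50% inhibition of growth. TGI: concentration producing complete growth inhibition.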

Experiments:
Assay in all cases: DTP human tumour cell line panel, 48 h
HCT-15 colon = tested on: HCT-15 colon
SNB-19 CNS = tested on: SNB-19 CNS
HOP-92 NSCLC = tested on: HOP-92 NSCLC
BT-549 breast = tested on: BT-549 breast
SF-295 CNS = tested on: SF-295 CNS
SK-MEL-28 melanoma = tested on: SK-MEL-28 melanoma
PC-3 prostate = tested on: PC-3 prostate
OVCAR-4 ovarian = tested on: OVCAR-4 ovarian
SF-268 CNS = tested on: SF-268 CNS
CCRF-CEM leukemia = tested on: CCRF-CEM leukemia
ACHN renal = tested on: ACHN renal
MDA-MB-435 = tested on: MDA-MB-435
SK-MEL-2 melanoma = tested on: SK-MEL-2 melanoma
K-562 leukemia = tested on: K-562 leukemia
SF-539 CNS = tested on: SF-539 CNS
MDA-MB-231 breast = tested on: MDA-MB-231 breast
NCI-H226 lung = tested on: NCI-H226 lung
SW-620 colon = tested on: SW-620 colon
A498 renal = tested on: A498 renal
NCI-H23 lung = tested on: NCI-H23 lung
CAKI-1 renal = tested on: CAKI-1 renal
A549 NSCLC = tested on: A549 NSCLC
MCF7 breast = tested on: MCF7 breast
SK-OV-3 ovarian = tested on: SK-OV-3 ovarian
MDA-MB-468 breast = tested on: MDA-MB-468 breast
M14 melanoma = tested on: M14 melanoma
HS 578T breast = tested on: HS 578T breast
RPMI-8226 leukemia = tested on: RPMI-8226 leukemia
HOP-62 NSCLC = tested on: HOP-62 NSCLC
OVCAR-3 ovarian = tested on: OVCAR-3 ovarian
SK-MEL-5 melanoma = tested on: SK-MEL-5 melanoma
OVCAR-8 ovarian = tested on: OVCAR-8 ovarian
NCI-H460 lung = tested on: NCI-H460 lung
HCC-2998 colon = tested on: HCC-2998 colon
786-0 renal = tested on: 786-0 renal
HCT-116 colon = tested on: HCT-116 colon
SNB-75 CNS = tested on: SNB-75 CNS
KM12 colon = tested on: KM12 colon
MALME-3M melanoma = tested on: MALME-3M melanoma
COLO 205 colon = tested on: COLO 205 colon
EKVX NSCLC = tested on: EKVX NSCLC
U251 CNS = tested on: U251 CNS
DU-145 prostate = tested on: DU-145 prostate
T-47D breast = tested on: T-47D breast
UO-31 renal = tested on: UO-31 renal
UACC-62 melanoma = tested on: UACC-62 melanoma
RXF 393 renal = tested on: RXF 393 renal
TK-10 renal = tested on: TK-10 renal
NCI-H522 lung = tested on: NCI-H522 lung
UACC-257 melanoma = tested on: UACC-257 melanoma
SR leukemia = tested on: SR leukemia
MOLT-4 leukemia = tested on: MOLT-4 leukemia
LOX IMVI melanoma = tested on: LOX IMVI melanoma
HT29 colon = tested on: HT29 colon
SN12C renal = tested on: SN12C renal
OVCAR-5 ovarian = tested on: OVCAR-5 ovarian
HL-60(TB) leukemia = tested on: HL-60(TB) leukemia
IGROV1 ovarian = tested on: IGROV1 ovarian

COc1ccccc1[C@H]1C(C(=O)c2ccc(O)cc2)C2(N[C@@H]1c1ccccc1)C(=O)Nc1ccc(Br)cc12 (stereo partly specified)
GI50 (HCT-15 colon): 8.02 µM | TGI (HCT-15 colon): 18.1 µM | GI50 (SNB-19 CNS): 7.62 µM | TGI (SNB-19 CNS): 14.8 µM | GI50 (HOP-92 NSCLC): 6.52 µM | TGI (HOP-92 NSCLC): 14.7 µM | GI50 (BT-549 breast): 6.03 µM | TGI (BT-549 breast): 13.4 µM | GI50 (SF-295 CNS): 6.63 µM | TGI (SF-295 CNS): 14.1 µM | GI50 (SK-MEL-28 melanoma): 8.02 µM | TGI (SK-MEL-28 melanoma): 15.4 µM | GI50 (PC-3 prostate): 4.08 µM | TGI (PC-3 prostate): 13.9 µM | GI50 (OVCAR-4 ovarian): 7.19 µM | TGI (OVCAR-4 ovarian): 16.4 µM | GI50 (SF-268 CNS): 7.05 µM | TGI (SF-268 CNS): 17.1 µM | GI50 (CCRF-CEM leukemia): 7.57 µM | TGI (CCRF-CEM leukemia): 24.4 µM | GI50 (ACHN renal): 7.72 µM | TGI (ACHN renal): 15 µM | GI50 (MDA-MB-435): 7.39 µM | TGI (MDA-MB-435): 15.1 µM | GI50 (SK-MEL-2 melanoma): 8.01 µM | TGI (SK-MEL-2 melanoma): 15.8 µM | GI50 (K-562 leukemia): 10.7 µM | TGI (K-562 leukemia): 43.1 µM | GI50 (SF-539 CNS): 8.07 µM | TGI (SF-539 CNS): 15.4 µM | GI50 (MDA-MB-231 breast): 6.39 µM | TGI (MDA-MB-231 breast): 13.3 µM | GI50 (NCI-H226 lung): 5.1 µM | TGI (NCI-H226 lung): 14.9 µM | GI50 (SW-620 colon): 8.34 µM | TGI (SW-620 colon): 16.8 µM | GI50 (A498 renal): 7.26 µM | TGI (A498 renal): 15 µM | GI50 (NCI-H23 lung): 8.25 µM | TGI (NCI-H23 lung): 16.7 µM | GI50 (CAKI-1 renal): 2.94 µM | TGI (CAKI-1 renal): 10.7 µM | GI50 (A549 NSCLC): 6.04 µM | TGI (A549 NSCLC): 13.6 µM | GI50 (MCF7 breast): 6.66 µM | TGI (MCF7 breast): 19.1 µM | GI50 (SK-OV-3 ovarian): 8.08 µM | TGI (SK-OV-3 ovarian): 16.3 µM | GI50 (MDA-MB-468 breast): 2.22 µM | TGI (MDA-MB-468 breast): 8.66 µM | GI50 (M14 melanoma): 7.35 µM | TGI (M14 melanoma): 15.4 µM | GI50 (HS 578T breast): 8.2 µM | TGI (HS 578T breast): 23.2 µM | GI50 (RPMI-8226 leukemia): 8.42 µM | TGI (RPMI-8226 leukemia): 47.7 µM | GI50 (HOP-62 NSCLC): 8.27 µM | TGI (HOP-62 NSCLC): 16.7 µM | GI50 (OVCAR-3 ovarian): 5.35 µM | TGI (OVCAR-3 ovarian): 12.4 µM | GI50 (SK-MEL-5 melanoma): 9.09 µM | TGI (SK-MEL-5 melanoma): 17.1 µM | GI50 (OVCAR-8 ovarian): 8.3 µM | TGI (OVCAR-8 ovarian): 16.7 µM | GI50 (NCI-H460 lung): 6.91 µM | TGI (NCI-H460 lung): 15 µM | GI50 (HCC-2998 colon): 6.55 µM | TGI (HCC-2998 colon): 14 µM | GI50 (786-0 renal): 8.4 µM | TGI (786-0 renal): 16.2 µM | GI50 (HCT-116 colon): 7.03 µM | TGI (HCT-116 colon): 15.4 µM | GI50 (SNB-75 CNS): 5.98 µM | TGI (SNB-75 CNS): 13.6 µM | GI50 (KM12 colon): 7.73 µM | TGI (KM12 colon): 16.9 µM | GI50 (MALME-3M melanoma): 8.42 µM | TGI (MALME-3M melanoma): 16.1 µM | GI50 (COLO 205 colon): 8.67 µM | TGI (COLO 205 colon): 18.2 µM | GI50 (EKVX NSCLC): 7.61 µM | TGI (EKVX NSCLC): 16.5 µM | GI50 (U251 CNS): 6.62 µM | TGI (U251 CNS): 13.9 µM | GI50 (DU-145 prostate): 9.39 µM | TGI (DU-145 prostate): 18 µM | GI50 (T-47D breast): 6.67 µM | TGI (T-47D breast): 16.6 µM | GI50 (UO-31 renal): 6.07 µM | TGI (UO-31 renal): 12.8 µM | GI50 (UACC-62 melanoma): 7.15 µM | TGI (UACC-62 melanoma): 14.2 µM | GI50 (RXF 393 renal): 5.63 µM | TGI (RXF 393 renal): 13.8 µM | GI50 (TK-10 renal): 7.34 µM | TGI (TK-10 renal): 15.2 µM | GI50 (NCI-H522 lung): 2.77 µM | TGI (NCI-H522 lung): 10.4 µM | GI50 (UACC-257 melanoma): 7.81 µM | TGI (UACC-257 melanoma): 15.5 µM | GI50 (SR leukemia): 5.57 µM | TGI (SR leukemia): 18.4 µM | GI50 (MOLT-4 leukemia): 4.42 µM | TGI (MOLT-4 leukemia): 23.2 µM | GI50 (LOX IMVI melanoma): 7.63 µM | TGI (LOX IMVI melanoma): 18.8 µM | GI50 (HT29 colon): 7.91 µM | TGI (HT29 colon): 17.6 µM | GI50 (SN12C renal): 2.65 µM | TGI (SN12C renal): 9.49 µM | GI50 (OVCAR-5 ovarian): 7.47 µM | TGI (OVCAR-5 ovarian): 14.7 µM | GI50 (HL-60(TB) leukemia): 12.2 µM | TGI (HL-60(TB) leukemia): 39.3 µM | GI50 (IGROV1 ovarian): 4.56 µM | TGI (IGROV1 ovarian): 11.8 µM
